Test results taken from the NIST ThermoML archive (doi:10.1021/acs.jced.5b00367).
Numbers after ± are expanded uncertainties.

Test: wn = mass fraction of the nth substance listed
Conditions: 101 kPa, Liquid, Alternating current cell with electrodes, w2 = 0.01

CCCCCCCCCCCCCCCC[N+](C)(C)C.[Br-] [N,N,N-trimethyl-1-hexadecanaminium bromide] + O
Conditions | electrical conductivity [S/m]
278.35 K | 0.0058 ± 0.0023
278.45 K | 0.00619 ± 0.0025
278.65 K | 0.00607 ± 0.0024
278.75 K | 0.00612 ± 0.0024
278.85 K | 0.0062 ± 0.0025
278.95 K | 0.00609 ± 0.0024
279.05 K | 0.00617 ± 0.0025
279.15 K | 0.00614 ± 0.0025
279.25 K | 0.0062 ± 0.0025
279.35 K | 0.00616 ± 0.0025
279.45 K | 0.00619 ± 0.0025
279.55 K | 0.00628 ± 0.0025
279.65 K | 0.00609 ± 0.0024
279.85 K | 0.0061 ± 0.0024
279.95 K | 0.00631 ± 0.0025
280.05 K | 0.00615 ± 0.0025
280.15 K | 0.00638 ± 0.0026
280.25 K | 0.00613 ± 0.0024
280.35 K | 0.00642 ± 0.0026
280.45 K | 0.00634 ± 0.0025
280.55 K | 0.00613 ± 0.0024
280.65 K | 0.00616 ± 0.0025
280.75 K | 0.00638 ± 0.0026
280.95 K | 0.00614 ± 0.0025
281.05 K | 0.00624 ± 0.0025
281.25 K | 0.00621 ± 0.0025
281.35 K | 0.00655 ± 0.0026
281.45 K | 0.00644 ± 0.0026
281.55 K | 0.00622 ± 0.0025
281.75 K | 0.00649 ± 0.0026
281.85 K | 0.00648 ± 0.0026
282.05 K | 0.00651 ± 0.0026
282.45 K | 0.00667 ± 0.0027
282.55 K | 0.00678 ± 0.0027
282.65 K | 0.00648 ± 0.0026
282.75 K | 0.00655 ± 0.0026
282.95 K | 0.00662 ± 0.0027
283.05 K | 0.00638 ± 0.0026
283.15 K | 0.00641 ± 0.0026
283.25 K | 0.0067 ± 0.0027
283.35 K | 0.00677 ± 0.0027
283.45 K | 0.00666 ± 0.0027
283.55 K | 0.0068 ± 0.0027
283.75 K | 0.00674 ± 0.0027
283.85 K | 0.0068 ± 0.0027
283.95 K | 0.00686 ± 0.0027
284.05 K | 0.00653 ± 0.0026
284.15 K | 0.00678 ± 0.0027
284.25 K | 0.00646 ± 0.0026
284.45 K | 0.00672 ± 0.0027
284.55 K | 0.007 ± 0.0028
284.65 K | 0.00699 ± 0.0028
284.75 K | 0.00651 ± 0.0026
284.85 K | 0.00686 ± 0.0027
285.05 K | 0.00717 ± 0.0029
285.15 K | 0.00708 ± 0.0028
285.25 K | 0.00696 ± 0.0028
285.35 K | 0.00725 ± 0.0029
285.45 K | 0.00739 ± 0.003
285.55 K | 0.00715 ± 0.0029
285.65 K | 0.00719 ± 0.0029
285.85 K | 0.00716 ± 0.0029
285.95 K | 0.00733 ± 0.0029
286.05 K | 0.00702 ± 0.0028
286.15 K | 0.00705 ± 0.0028
286.25 K | 0.007 ± 0.0028
286.35 K | 0.00737 ± 0.0029
286.45 K | 0.00737 ± 0.0029
286.55 K | 0.00715 ± 0.0029
286.65 K | 0.00719 ± 0.0029
286.75 K | 0.00733 ± 0.0029
286.85 K | 0.0074 ± 0.003
286.95 K | 0.00708 ± 0.0028
287.05 K | 0.00755 ± 0.003
287.15 K | 0.00733 ± 0.0029
287.25 K | 0.00744 ± 0.003
287.35 K | 0.00761 ± 0.003
287.45 K | 0.00728 ± 0.0029
287.55 K | 0.00751 ± 0.003
287.65 K | 0.00752 ± 0.003
287.75 K | 0.0073 ± 0.0029
287.85 K | 0.0076 ± 0.003
287.95 K | 0.00774 ± 0.0031
288.05 K | 0.0076 ± 0.003
288.15 K | 0.00778 ± 0.0031
288.25 K | 0.00766 ± 0.0031
288.35 K | 0.00772 ± 0.0031
288.45 K | 0.00805 ± 0.0032
288.55 K | 0.00791 ± 0.0032
288.65 K | 0.00778 ± 0.0031
288.75 K | 0.00779 ± 0.0031
288.85 K | 0.0077 ± 0.0031
288.95 K | 0.00795 ± 0.0032
289.05 K | 0.00784 ± 0.0031
289.15 K | 0.00787 ± 0.0032
289.25 K | 0.00779 ± 0.0031
289.35 K | 0.00805 ± 0.0032
289.45 K | 0.00794 ± 0.0032
289.55 K | 0.00793 ± 0.0032
289.65 K | 0.00803 ± 0.0032
289.75 K | 0.00826 ± 0.0033
289.85 K | 0.00819 ± 0.0033
289.95 K | 0.00835 ± 0.0033
290.05 K | 0.0079 ± 0.0032
290.15 K | 0.00861 ± 0.0034
290.25 K | 0.00828 ± 0.0033
290.35 K | 0.00849 ± 0.0034
290.45 K | 0.00815 ± 0.0033
290.55 K | 0.00824 ± 0.0033
290.65 K | 0.00834 ± 0.0033
290.75 K | 0.00836 ± 0.0034
290.85 K | 0.00818 ± 0.0033
290.95 K | 0.00836 ± 0.0034
291.05 K | 0.00861 ± 0.0034
291.15 K | 0.00846 ± 0.0034
291.25 K | 0.0088 ± 0.0035
291.35 K | 0.00865 ± 0.0035
291.45 K | 0.00866 ± 0.0035
291.55 K | 0.00853 ± 0.0034
291.65 K | 0.00868 ± 0.0035
291.75 K | 0.00867 ± 0.0035
291.85 K | 0.00897 ± 0.0036
291.95 K | 0.00872 ± 0.0035
292.05 K | 0.00879 ± 0.0035
292.15 K | 0.00913 ± 0.0037
292.25 K | 0.00908 ± 0.0036
292.35 K | 0.00902 ± 0.0036
292.45 K | 0.00905 ± 0.0036
292.55 K | 0.00904 ± 0.0036
292.65 K | 0.00928 ± 0.0037
292.75 K | 0.00942 ± 0.0038
292.85 K | 0.00967 ± 0.0039
292.95 K | 0.00959 ± 0.0038
293.05 K | 0.00954 ± 0.0038
293.15 K | 0.00976 ± 0.0039
293.25 K | 0.01 ± 0.004
293.35 K | 0.0101 ± 0.0041
293.45 K | 0.0102 ± 0.0041
293.55 K | 0.0103 ± 0.0041
293.65 K | 0.0105 ± 0.0042
293.75 K | 0.0102 ± 0.0041
294.15 K | 0.0106 ± 0.0042
294.25 K | 0.0109 ± 0.0044
294.35 K | 0.0107 ± 0.0043
294.45 K | 0.011 ± 0.0044
294.55 K | 0.0111 ± 0.0045
294.65 K | 0.0109 ± 0.0044
294.75 K | 0.011 ± 0.0044
294.85 K | 0.0114 ± 0.0046
294.95 K | 0.0113 ± 0.0045
295.05 K | 0.0114 ± 0.0046
295.15 K | 0.0117 ± 0.0047
295.25 K | 0.0117 ± 0.0047
295.45 K | 0.0122 ± 0.0049
295.65 K | 0.0126 ± 0.005
295.75 K | 0.0124 ± 0.005
295.85 K | 0.0128 ± 0.0052
296.05 K | 0.013 ± 0.0052
296.15 K | 0.0139 ± 0.0056
296.35 K | 0.0139 ± 0.0056
296.45 K | 0.0145 ± 0.0058
296.55 K | 0.0148 ± 0.006
296.75 K | 0.0157 ± 0.0064
296.95 K | 0.0167 ± 0.0068
297.05 K | 0.0178 ± 0.0073
297.15 K | 0.02 ± 0.0082
297.35 K | 0.0201 ± 0.0085
297.45 K | 0.0217 ± 0.0092
297.55 K | 0.0232 ± 0.0097
297.65 K | 0.0257 ± 0.011
297.95 K | 0.0314 ± 0.014
298.05 K | 0.0353 ± 0.015
298.25 K | 0.0406 ± 0.018
298.35 K | 0.0457 ± 0.02
298.45 K | 0.0514 ± 0.022
298.55 K | 0.0565 ± 0.024
298.75 K | 0.0605 ± 0.025
298.85 K | 0.0628 ± 0.025
299.05 K | 0.0642 ± 0.026
299.15 K | 0.0647 ± 0.026
299.25 K | 0.0648 ± 0.026
